Test [1] deals with T1, MMP-2 (Homo sapiens, UniProt P08253).
T1 construct: made in house; host or cells: MMP-2-transfected p2AHT2 cells
T1 sequence (P08253 110-660): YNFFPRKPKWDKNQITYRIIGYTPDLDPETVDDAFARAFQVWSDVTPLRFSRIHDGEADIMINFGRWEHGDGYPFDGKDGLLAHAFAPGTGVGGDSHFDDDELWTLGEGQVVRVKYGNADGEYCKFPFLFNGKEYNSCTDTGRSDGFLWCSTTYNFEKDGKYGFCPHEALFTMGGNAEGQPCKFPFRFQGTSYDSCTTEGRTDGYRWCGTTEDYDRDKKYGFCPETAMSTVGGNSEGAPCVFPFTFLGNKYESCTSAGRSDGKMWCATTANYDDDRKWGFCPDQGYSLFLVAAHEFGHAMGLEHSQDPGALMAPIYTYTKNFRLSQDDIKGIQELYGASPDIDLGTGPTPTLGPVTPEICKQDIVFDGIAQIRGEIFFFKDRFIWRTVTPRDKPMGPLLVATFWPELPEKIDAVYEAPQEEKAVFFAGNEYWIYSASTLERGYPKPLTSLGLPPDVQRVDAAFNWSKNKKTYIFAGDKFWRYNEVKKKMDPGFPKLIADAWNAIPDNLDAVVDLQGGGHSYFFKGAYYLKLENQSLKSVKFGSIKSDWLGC
The test is described as follows: In vitro MMP inhibition, IC50 determination (fluorogenic substrate I). It counts as biochemical. As to conditions: read-out: MMP-2 (IC-50).

Test [2] addresses T2, MMP-13 (Homo sapiens, UniProt P45452).
T2 construct: made in house; host or cells: baculovirus / insect cells
The description is as above. It counts as biochemical. The following applies: read-out: MMP-13 (IC-50).

Structures are written as SMILES. Like-named read-outs stand apart in the source and are kept apart here.

For `CCOCCCc1ccc(N2CCN(S(=O)(=O)C3(C(=O)NO)CCN(CCOC)CC3)CC2)cc1` [Example 179], the IC50 in test [1] (value in parenthesis) was 1.02 nM; in test [2] (value in parenthesis) it was 0.53 nM.

`COCCCc1ccc(N2CCN(S(=O)(=O)C3(C(=O)NO)CCN(CCOC)CC3)CC2)cc1` [Example 180]: the results for the IC50 in test [1] (value in parenthesis) and in test [2] (value in parenthesis) were 2.14 nM and 1.21 nM, respectively.

`COCCN1CCC(C(=O)NO)(S(=O)(=O)N2CCN(c3ccc(CC4CCCCC4)cc3)CC2)CC1` [Example 181]: the IC50 stood at 10.2 nM in test [1] (value in parenthesis) and 18 nM in test [2] (value in parenthesis).

In the case of `COCCN1CCC(C(=O)NO)(S(=O)(=O)N2CCN(c3ccc(CCC4CCCC4)cc3)CC2)CC1` [Example 182], the IC50 in test [1] (value in parenthesis) is 0.12 nM; in test [2] (value in parenthesis) it was 0.14 nM.

For the compound `COCCN1CCC(C(=O)NO)(S(=O)(=O)N2CCN(c3ccc(CC4CCC4)cc3)CC2)CC1` [Example 183], the figures for the IC50 in test [1] (value in parenthesis) and in test [2] (value in parenthesis) were 2.31 nM and 2.76 nM, respectively.

In the case of `CCOc1ccc(N2CCN(S(=O)(=O)C3(C(=O)NO)CCN(CCOC)CC3)CC2)cc1F` [Example 184], the IC50 in test [1] (value in parenthesis) is 0.65 nM; in test [2] (value in parenthesis), 2.26 nM.

For the compound `CCCOc1ccc(N2CCN(S(=O)(=O)C3(C(=O)NO)CCN(CCOC)CC3)CC2)cc1F` [Example 185], the IC50 in test [1] (value in parenthesis) came out at 0.59 nM; in test [2] (value in parenthesis), 1.63 nM.

With `COCCN1CCC(C(=O)NO)(S(=O)(=O)N2CCN(c3ccc(C#N)cc3)CC2)CC1` [Example 186], the IC50 amounted to 3.14 nM in test [1] (value in parenthesis) and 2.63 nM in test [2] (value in parenthesis).

In the case of `CCc1cnc(N2CCN(S(=O)(=O)C3(C(=O)NO)CCN(CCOC)CC3)CC2)nc1` [Example 187], the IC50 amounted to 78 nM in test [1] (value in parenthesis) and 47.3 nM in test [2] (value in parenthesis).

As to `CCC(CC)Cc1ccc(N2CCN(S(=O)(=O)C3(C(=O)NO)CCN(CCOC)CC3)CC2)cc1` [Example 188], the IC50 in test [1] (value in parenthesis) was 12.4 nM; in test [2] (value in parenthesis), 4.01 nM.

Regarding `CCCCOc1ccc(N2CCN(S(=O)(=O)C3(C(=O)NO)CCN(C(=O)CCC)CC3)CC2)cc1` [Example 290], the IC50 stood at 59.5 nM in test [1] (value in parentheses) and 0.35 nM in test [2] (value in parentheses).

For the origin of these results see patent US20050209278A1, “Piperidinyl- and piperazinyl-sulfonylmethyl hydroxamic acids and their use as protease inhibitors” (priority 2002, published 2005).
